ChEMBL document CHEMBL4610027, “Identification of Mycobacterium tuberculosis CtpF as a target for designing new antituberculous compounds” (Bioorg Med Chem, 2020)
pIC50: −log10 of the molar value.

Experiment: Inhibition of calcium stimulated Mycobacterium tuberculosis H37Ra CtpF mutant ATPase activity using Na2ATP as substrate preincubated for 30 mins followed by substrate addition and measured after 30 mins by colorimetric analysis

| Compound | pIC50 |
| --- | --- |
| NS(=O)(=O)[C@H]1CC=C(CNC(=O)CCCc2c[nH]c3ccccc23)S1 | 4.00 |
| O=C(CCCC[C@@H]1SC[C@@H]2NC(=O)N[C@@H]21)NCc1cn(-c2ccccc2)nc1-c1ccccc1 | 4.12 |
| C[C@@H](OC(=O)CCCNC1=NS(=O)(=O)c2ccccc21)C(=O)c1c[nH]c2ccccc12 | 3.99 |
| CCCCC(=O)Nc1cccc(C(=O)NCCCNc2cccnc2)c1 | 4.01 |
| COCC(=O)Nc1c(C(=O)OC)n(CCC(C)C)c2ncc(N[C@@H](C)C(C)(C)O)cc12 | 4.42 |
| CCC[C@H](C)NC(=O)CSc1nc2cc(S(=O)(=O)Nc3ccccc3OC)ccc2o1 | 3.96 |
| CC(=O)C1=C(O)[C@@H]2[C@H]3c4c[nH]c5cccc(c45)C[C@H]3C(C)(C)N2C1=O [CYCLOPIAZONIC ACID] | 4.02 |
